Source: paper PMC3910101 (International journal of cancer. Journal international du …, 2012)

Target: Hsp90
Test: SPR
Format: binding, Homo sapiens

- Kd: 4.99 µM
SMILES: CC(C)=CCCC1(C)C=Cc2c(c(C)cc3c2[nH]c2cc(O)ccc23)O1 (stereo not shown) [mahanine]
